# Results taken from US20220400676A1, “HERBICIDAL COMPOUNDS” (SYNGENTA CROP PROTECTION AG, priority 2019, published 2022).
# Legend:
# [1] = system: Echinochloa crus-galli (ECHCG); assay: Pre-emergence herbicidal glasshouse test; type: in vivo; details: 250 g/ha, evaluated after 13 days
# Method: (§1) Seeds of a variety of test species are sown in standard soil in pots Amaranthus retoflexus (AMARE), Echinochloa crus-galli (ECHCG), Setaria faberi (SETFA)). After cultivation for one day (pre-emergence) or after 8 days cultivation (post-emergence) under controlled conditions in a glasshouse (at 24/16° C., day/night; 14 hours light; 65% humidity), the plants are sprayed with an aqueous spray solution derived from the formulation of the technical active ingredient in acetone/water (50:50) solution containing 0.5% Tween 20 (polyoxyethelyene sorbitan monolaurate, CAS RN 9005-64-5). Compounds are applied at 250 g/ha unless otherwise stated. The test plants are then grown in a glasshouse under controlled conditions in a glasshouse (at 24/16° C., day/night; 14 hours light; 65% humidity) and watered twice daily. After 13 days for pre- and post-emergence, the test is evaluated for the percentage damage caused to the plant. The biological activities are shown in the following table on a five-point scale (5=81-100%; 4=61-80%; 3=41-60%; 2=21-40%; 1=0-20%).
# [2] = system: Amaranthus retoflexus (AMARE); assay: Pre-emergence herbicidal glasshouse test; type: in vivo; details: 250 g/ha, evaluated after 13 days
# Method: as §1
# Setaria faberi (SETFA) [3] = assay: Pre-emergence herbicidal glasshouse test; type: in vivo; details: 250 g/ha, evaluated after 13 days
# Method: as §1
# [4] = system: Echinochloa crus-galli (ECHCG); assay: Post-emergence herbicidal glasshouse test; type: in vivo; details: 250 g/ha, evaluated after 13 days
# Method: as §1
# [5] = system: Amaranthus retoflexus (AMARE); assay: Post-emergence herbicidal glasshouse test; type: in vivo; details: 250 g/ha, evaluated after 13 days
# Method: as §1
# Setaria faberi (SETFA) [6] = assay: Post-emergence herbicidal glasshouse test; type: in vivo; details: 250 g/ha, evaluated after 13 days
# Method: as §1
# AMARE = assay: Comparative Test (Post-Emergence), weed; type: in vivo, Amaranthus retoflexus
# Method: as §1
# ZEAMX = assay: Comparative Test (Post-Emergence), crop; type: in vivo, corn
smiles,measurement,setting,value
COc1cc(Oc2cccc(Br)c2-c2cc(C(F)F)no2)ncn1 [Compound 2.003],"percentage damage caused to the plant, five-point scale, ECHCG",[1],5 (5=81-100%)
same,"percentage damage caused to the plant, five-point scale, AMARE",[2],5 (5=81-100%)
same,"percentage damage caused to the plant, five-point scale, SETFA",Setaria faberi (SETFA) [3],5 (5=81-100%)
same,"percentage damage caused to the plant, five-point scale, ECHCG",[4],4 (4=61-80%)
same,"percentage damage caused to the plant, five-point scale, AMARE",[5],3 (3=41-60%)
same,"percentage damage caused to the plant, five-point scale, SETFA",Setaria faberi (SETFA) [6],4 (4=61-80%)
CNc1cc(Oc2cccc(F)c2-c2cc(C(F)F)no2)ncn1 [Compound 2.005],"percentage damage caused to the plant, five-point scale, ECHCG",[1],2 (2=21-40%)
same,"percentage damage caused to the plant, five-point scale, AMARE",[2],2 (2=21-40%)
same,"percentage damage caused to the plant, five-point scale, SETFA",Setaria faberi (SETFA) [3],2 (2=21-40%)
same,"percentage damage caused to the plant, five-point scale, ECHCG",[4],2 (2=21-40%)
same,"percentage damage caused to the plant, five-point scale, AMARE",[5],2 (2=21-40%)
same,"percentage damage caused to the plant, five-point scale, SETFA",Setaria faberi (SETFA) [6],2 (2=21-40%)
Cc1ncnc(Oc2cccc(F)c2-c2cc(C(F)F)co2)c1F [Compound 2.008],"percentage damage caused to the plant, five-point scale, ECHCG",[1],4 (4=61-80%)
same,"percentage damage caused to the plant, five-point scale, AMARE",[2],4 (4=61-80%)
same,"percentage damage caused to the plant, five-point scale, SETFA",Setaria faberi (SETFA) [3],4 (4=61-80%)
same,"percentage damage caused to the plant, five-point scale, ECHCG",[4],1 (1=0-20%)
same,"percentage damage caused to the plant, five-point scale, AMARE",[5],3 (3=41-60%)
same,"percentage damage caused to the plant, five-point scale, SETFA",Setaria faberi (SETFA) [6],1 (1=0-20%)
COc1ccnc(Oc2cccc(F)c2-c2cc(C(F)F)no2)n1,% Phytotoxicity AMARE,AMARE; rate 16 g/ha,0%
same,% Phytotoxicity AMARE,AMARE; rate 63 g/ha,10%
same,% Phytotoxicity AMARE,AMARE; rate 250 g/ha,20%
same,% Phytotoxicity ZEAMX,ZEAMX; rate 16 g/ha,0%
same,% Phytotoxicity ZEAMX,ZEAMX; rate 63 g/ha,10%
same,% Phytotoxicity ZEAMX,ZEAMX; rate 250 g/ha,20%
Cc1cc(Oc2cccc(Br)c2-c2cc(C(F)F)no2)ncn1 [Compound 2.006],"percentage damage caused to the plant, five-point scale, ECHCG",[1],5 (5=81-100%)
same,"percentage damage caused to the plant, five-point scale, AMARE",[2],2 (2=21-40%)
same,"percentage damage caused to the plant, five-point scale, SETFA",Setaria faberi (SETFA) [3],4 (4=61-80%)
same,"percentage damage caused to the plant, five-point scale, ECHCG",[4],3 (3=41-60%)
same,"percentage damage caused to the plant, five-point scale, AMARE",[5],1 (1=0-20%)
same,"percentage damage caused to the plant, five-point scale, SETFA",Setaria faberi (SETFA) [6],3 (3=41-60%)
Cc1cc(Oc2cccc(Cl)c2-c2cc(C(F)F)no2)ncn1 [Compound 2.007],"percentage damage caused to the plant, five-point scale, ECHCG",[1],5 (5=81-100%)
same,"percentage damage caused to the plant, five-point scale, AMARE",[2],4 (4=61-80%)
same,"percentage damage caused to the plant, five-point scale, SETFA",Setaria faberi (SETFA) [3],5 (5=81-100%)
same,"percentage damage caused to the plant, five-point scale, ECHCG",[4],4 (4=61-80%)
same,"percentage damage caused to the plant, five-point scale, AMARE",[5],2 (2=21-40%)
same,"percentage damage caused to the plant, five-point scale, SETFA",Setaria faberi (SETFA) [6],4 (4=61-80%)
COc1cc(OC)nc(Oc2cccc(F)c2-c2cc(C(F)F)no2)n1,% Phytotoxicity AMARE,AMARE; rate 16 g/ha,0%
same,% Phytotoxicity AMARE,AMARE; rate 33 g/ha,0%
same,% Phytotoxicity AMARE,AMARE; rate 250 g/ha,0%
same,% Phytotoxicity ZEAMX,ZEAMX; rate 16 g/ha,0%
same,% Phytotoxicity ZEAMX,ZEAMX; rate 33 g/ha,0%
same,% Phytotoxicity ZEAMX,ZEAMX; rate 250 g/ha,0%
COc1cc(Oc2cccc(F)c2-c2cc(C(F)F)no2)ncn1 [drawing 58],% Phytotoxicity AMARE,AMARE; rate 16 g/ha,60%
same,% Phytotoxicity AMARE,AMARE; rate 63 g/ha,60%
same,% Phytotoxicity AMARE,AMARE; rate 250 g/ha,80%
same,% Phytotoxicity ZEAMX,ZEAMX; rate 16 g/ha,0%
same,% Phytotoxicity ZEAMX,ZEAMX; rate 63 g/ha,10%
same,% Phytotoxicity ZEAMX,ZEAMX; rate 250 g/ha,10%
"COc1cc(Oc2cccc(F)c2-c2cc(C(F)F)no2)ncn1 [Compound 2.017, 3-(difluoromethyl)-5-[2-fluoro-6-(6-methoxypyrimidin-4-yl)oxy-phenyl]isoxazole]","percentage damage caused to the plant, five-point scale, ECHCG",[1],5 (5=81-100%)
same,"percentage damage caused to the plant, five-point scale, AMARE",[2],5 (5=81-100%)
same,"percentage damage caused to the plant, five-point scale, SETFA",Setaria faberi (SETFA) [3],5 (5=81-100%)
same,"percentage damage caused to the plant, five-point scale, ECHCG",[4],4 (4=61-80%)
same,"percentage damage caused to the plant, five-point scale, AMARE",[5],4 (4=61-80%)
same,"percentage damage caused to the plant, five-point scale, SETFA",Setaria faberi (SETFA) [6],4 (4=61-80%)
CNc1ncnc(Oc2cccc(F)c2-c2cc(C(F)F)no2)c1Cl [Compound 2.002],"percentage damage caused to the plant, five-point scale, ECHCG",[1],1 (1=0-20%)
same,"percentage damage caused to the plant, five-point scale, AMARE",[2],2 (2=21-40%)
same,"percentage damage caused to the plant, five-point scale, SETFA",Setaria faberi (SETFA) [3],1 (1=0-20%)
same,"percentage damage caused to the plant, five-point scale, ECHCG",[4],1 (1=0-20%)
same,"percentage damage caused to the plant, five-point scale, AMARE",[5],2 (2=21-40%)
same,"percentage damage caused to the plant, five-point scale, SETFA",Setaria faberi (SETFA) [6],1 (1=0-20%)
COc1cc(Oc2cccc(Cl)c2-c2cc(C(F)F)no2)ncn1 [Compound 2.004],"percentage damage caused to the plant, five-point scale, ECHCG",[1],5 (5=81-100%)
same,"percentage damage caused to the plant, five-point scale, AMARE",[2],5 (5=81-100%)
same,"percentage damage caused to the plant, five-point scale, SETFA",Setaria faberi (SETFA) [3],5 (5=81-100%)
same,"percentage damage caused to the plant, five-point scale, ECHCG",[4],4 (4=61-80%)
same,"percentage damage caused to the plant, five-point scale, AMARE",[5],4 (4=61-80%)
same,"percentage damage caused to the plant, five-point scale, SETFA",Setaria faberi (SETFA) [6],4 (4=61-80%)
